Data reported in US8785457B2 (Cellzome Limited, priority 2009, dated 2014).
Where a name gives a salt, the structure may show the parent alone. Read-outs that look alike come from different tables or passages of the source.

Assays:
mTOR = biological target: T1, mTOR (Homo sapiens, UniProt P42345); assay: mTOR kinobeads assay (competitive binding in Jurkat cell lysate, immunodetection)
T1 construct: endogenous in cells; host or cells: Jurkat, clone E6-1 (ATCC TIB-152) cell lysate
Description: The compounds of the present invention as described were tested in the mTOR kinobeads assay as described below. […] After the incubation time the beads with captured proteins were separated from the lysate. Bound proteins were then eluted and the presence of mTOR, PI3K delta (PI3 Kd) and DNA-dependent protein kinase (DNA-PK) was detected and quantified using a specific antibody in a dot blot procedure and the Odyssey infrared detection system.
(§1) The kinobeads assay was performed as a competitive binding assay in which test compounds were added directly into a cell lysate. Test compounds (at various concentrations) and the affinity matrix (beads with immobilized phenylmorpholin-chromen ligand) were added to cell lysate aliquots and allowed to bind to the proteins contained in the lysate sample. After the incubation time the beads with captured proteins were separated from the lysate. Bound proteins were then eluted and the presence of kinases was detected and quantified using a multiplexed immunodetection format. Dose response curves for individual kinases were generated and IC50 values calculated.
(§2) 5×DP buffer: 250 mM Tris-HCl pH 7.4, 25% Glycerol, 7.5 mM MgCl2, 750 mM NaCl, 5 mM Na3VO4, filter the 5×-lysis buffer through 0.22 μm filter and store in aliquots at −80° C. The 5×DP buffer is diluted to 1×DP buffer containing 1 mM DTT and 25 mM NaF.
(§3) Stock solutions of test compounds were prepared in DMSO. In a 96 well plate 30 μl solution of diluted test compounds at 5 mM in DMSO were prepared. Starting with this solution a 1:3 dilution series (9 steps) was prepared. For control experiments (no test compound) a buffer containing 2% DMSO was used.
Jurkat cells were homogenized in a Potter S homogenizer in lysis buffer: 50 mM Tris-HCl, 0.8% NP40, 5% glycerol, 150 mM NaCl, 1.5 mM MgCl2, 25 mM NaF, 1 mM sodium vanadate, 1 mM DTT, pH 7.5. […] The material was dounced 10 times using a mechanized POTTER S, transferred to 50 ml falcon tubes, incubated for 30 minutes on ice and spun down for 10 min at 20,000 g at 4° C. (10,000 rpm in Sorvall SLA600, precooled). […] (33.500 rpm in Ti50.2, precooled). The supernatant was transferred again to a fresh 50 ml falcon tube, the protein concentration was determined by a Bradford assay (BioRad) and samples containing 50 mg of protein per aliquot were prepared. The samples were immediately used for experiments or frozen in liquid nitrogen and stored frozen at −80° C.
Jurkat cell lysate (approximately 50 mg protein per plate) was thawed in a water bath at room temperature and then kept on ice. […] The diluted cell lysate was stored on ice.
Plates were sealed and incubated for two hours in a cold room on a Thermoxer with shaking (750 rpm). Afterwards the plate was washed twice with 230 μl washing buffer (1×DP 0.4% NP40). […] The eluate was frozen quickly at −80° C. and stored at −20° C.
The kinases in the eluates were detected and quantified by spotting on Nitrocellulose membranes and using a first antibody directed against the kinase of interest and a fluorescently labeled secondary antibody (anti-mouse or anti-rabbit IRDye™ antibodies from Rockland).
Afterwards the membrane was washed three times for 10 minutes with PBS buffer containing 0.1% Tween 20 at room temperature. […] Afterwards the membrane was washed three times for 10 minutes each with 1×PBS buffer containing 0.1% Tween 20 at room temperature. Then the membrane was rinsed once with PBS buffer to remove residual Tween 20. The membrane was kept in PBS buffer at 4° C. and then scanned with the Odyssey instrument. Fluorescence signals were recorded and analysed according to the instructions of the manufacturer.

PI3Kalpha (PI3Ka) = biological target: T2, PI3Kalpha (PI3Ka) (Homo sapiens, UniProt P42336); assay: kinobeads assay, PI3Kalpha; type: binding
T2 construct: endogenous in cells; host or cells: cell lysate
Description: as §1
(§4) The effect of the compounds on the kinases PI3Kalpha (PI3Ka), PI3 Kbeta (PI3 Kb) and PI3 Kgamma (PI3 Kg) were tested in the kinobeads assay as described (WO-A 2009/098021).

PI3K delta (PI3 Kd) = biological target: T3, PI3K delta (PI3 Kd) (Homo sapiens, UniProt O00329); assay: kinobeads assay, PI3K delta; type: binding
T3 construct: endogenous in cells; host or cells: Jurkat, clone E6-1 (ATCC TIB-152) cell lysate
Description: (§5) The compounds of the present invention as described were tested in the mTOR kinobeads assay as described below. Briefly, test compounds (at various concentrations) and the affinity matrix with the immobilized phenylmorpholin-chromen ligand (8-(4-aminomethyl-phenyl)-2-morpholin-4-yl-chromen-4-one) were added to cell lysate aliquots and allowed to bind to the proteins in the lysate sample. After the incubation time the beads with captured proteins were separated from the lysate. Bound proteins were then eluted and the presence of mTOR, PI3K delta (PI3 Kd) and DNA-dependent protein kinase (DNA-PK) was detected and quantified using a specific antibody in a dot blot procedure and the Odyssey infrared detection system. Kinobeads assays for PI3K (WO-A 2008/015013) and for kinase selectivity profiling (WO 2006/134056) have been previously described.
as §1
(§6) The affinity matrix (beads with immobilized phenylmorpholin-chromen ligand) was washed two times with 15 ml of 1×DP buffer containing 0.2% NP40 (IGEPAL® CA-630, Sigma, #13021) and then resupended in 5.5 ml of 1×DP buffer containing 0.2% NP40 (10% beads slurry).
as §2
as §3, with “used. Compound CZC00018052 served as a positive control (PI-103; Calbiochem catalogue number 528100).” for “used.”
(§7) Jurkat cells (ATCC catalogue number TIB-152 Jurkat, clone E6-1) were grown in 1 liter Spinner flasks (Integra Biosciences, #182101) in suspension in RPMI 1640 medium (Invitrogen, #21875-034) supplemented with 10% Fetal Bovine Serum (Invitrogen) at a density between 0.15×10^6 and 1.2×10^6 cells/ml. Cells were harvested by centrifugation, washed once with 1×PBS buffer (Invitrogen, #14190-094) and cell pellets were frozen in liquid nitrogen and subsequently stored at −80° C.
(§8) Jurkat cells were homogenized in a Potter S homogenizer in lysis buffer: 50 mM Tris-HCl, 0.8% NP40, 5% glycerol, 150 mM NaCl, 1.5 mM MgCl2, 25 mM NaF, 1 mM sodium vanadate, 1 mM DTT, pH 7.5. One complete EDTA-free tablet (protease inhibitor cocktail, Roche Diagnostics, 1873580) per 25 ml buffer was added. The material was dounced 10 times using a mechanized POTTER S, transferred to 50 ml falcon tubes, incubated for 30 minutes on ice and spun down for 10 min at 20,000 g at 4° C. (10,000 rpm in Sorvall SLA600, precooled). The supernatant was transferred to an ultracentrifuge (UZ)-polycarbonate tube (Beckmann, 355654) and spun for 1 hour at 100.000 g at 4° C. (33.500 rpm in Ti50.2, precooled). The supernatant was transferred again to a fresh 50 ml falcon tube, the protein concentration was determined by a Bradford assay (BioRad) and samples containing 50 mg of protein per aliquot were prepared. The samples were immediately used for experiments or frozen in liquid nitrogen and stored frozen at −80° C. […]

[1] = biological target: T4, DNA-dependent protein kinase (DNA-PK) (Homo sapiens, UniProt P78527); assay: kinobeads assay, DNA-PK; type: binding
T4 construct: endogenous in cells; host or cells: Jurkat, clone E6-1 (ATCC TIB-152) cell lysate
Description: as §5, §1, §6, §2
as §3, with “used. Compound CZC00018052 served as a positive control (PI-103; Calbiochem catalogue number 528100).” for “used.”
as §7, §8

PI3 Kgamma (PI3 Kg) = biological target: T5, PI3 Kgamma (PI3 Kg) (Homo sapiens, UniProt P48736); assay: kinobeads assay, PI3Kgamma; type: binding
T5 construct: endogenous in cells; host or cells: cell lysate
Description: as §1, §4

PI3 Kbeta (PI3 Kb) = biological target: T6, PI3 Kbeta (PI3 Kb) (Homo sapiens, UniProt P42338); assay: kinobeads assay, PI3Kbeta; type: binding
T6 construct: endogenous in cells; host or cells: cell lysate
Description: as §1, §4

[2] = Further Kinobeads Data, read-out: mTor
[3] = Further Kinobeads Data, read-out: PI3Kd
[4] = Further Kinobeads Data, read-out: DNAPK
[5] = Further Kinobeads Data, read-out: PI3Kg
[6] = Further Kinobeads Data, read-out: PI3Kb
[7] = Further Kinobeads Data, read-out: PI3Ka
[8] = kinobeads assay, Table 6, read-out: Inhibition values (IC50) mTOR
[9] = kinobeads assay, Table 6, read-out: Inhibition values (IC50) PI3Ka
[10] = kinobeads assay, Table 6, read-out: Inhibition values (IC50) PI3Kd
[11] = kinobeads assay, Table 6, read-out: Inhibition values (IC50) DNAPK
[12] = kinobeads assay, Table 6, read-out: Inhibition values (IC50) PI3Kg
[13] = kinobeads assay, Table 6, read-out: Inhibition values (IC50) PI3Kb

T3 sequence (O00329 whole entry): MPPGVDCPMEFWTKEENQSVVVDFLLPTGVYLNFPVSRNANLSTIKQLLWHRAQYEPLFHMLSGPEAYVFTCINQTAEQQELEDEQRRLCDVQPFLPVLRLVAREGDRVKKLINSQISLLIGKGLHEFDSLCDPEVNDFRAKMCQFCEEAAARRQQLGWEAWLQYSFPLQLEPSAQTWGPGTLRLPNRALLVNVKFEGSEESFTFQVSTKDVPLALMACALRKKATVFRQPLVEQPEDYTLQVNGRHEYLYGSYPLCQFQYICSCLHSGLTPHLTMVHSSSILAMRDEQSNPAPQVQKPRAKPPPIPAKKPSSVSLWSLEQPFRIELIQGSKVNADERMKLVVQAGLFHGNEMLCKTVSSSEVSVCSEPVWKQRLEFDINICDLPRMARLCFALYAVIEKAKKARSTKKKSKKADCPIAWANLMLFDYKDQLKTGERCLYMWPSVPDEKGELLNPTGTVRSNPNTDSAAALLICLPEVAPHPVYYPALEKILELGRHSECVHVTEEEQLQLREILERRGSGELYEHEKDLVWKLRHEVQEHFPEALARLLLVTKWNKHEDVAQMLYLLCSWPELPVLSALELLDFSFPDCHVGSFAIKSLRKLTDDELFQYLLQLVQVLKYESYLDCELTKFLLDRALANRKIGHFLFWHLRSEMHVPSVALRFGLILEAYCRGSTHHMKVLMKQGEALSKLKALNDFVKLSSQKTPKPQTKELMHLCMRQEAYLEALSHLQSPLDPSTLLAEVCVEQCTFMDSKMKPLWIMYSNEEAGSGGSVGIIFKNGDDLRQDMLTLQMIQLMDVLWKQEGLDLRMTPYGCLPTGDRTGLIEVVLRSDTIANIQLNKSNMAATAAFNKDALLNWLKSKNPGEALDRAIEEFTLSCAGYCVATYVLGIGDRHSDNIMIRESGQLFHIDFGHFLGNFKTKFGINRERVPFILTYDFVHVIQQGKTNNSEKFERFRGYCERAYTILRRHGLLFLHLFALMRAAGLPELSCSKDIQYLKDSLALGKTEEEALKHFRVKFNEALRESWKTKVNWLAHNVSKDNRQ
T3 sequence (P27986 whole entry partner): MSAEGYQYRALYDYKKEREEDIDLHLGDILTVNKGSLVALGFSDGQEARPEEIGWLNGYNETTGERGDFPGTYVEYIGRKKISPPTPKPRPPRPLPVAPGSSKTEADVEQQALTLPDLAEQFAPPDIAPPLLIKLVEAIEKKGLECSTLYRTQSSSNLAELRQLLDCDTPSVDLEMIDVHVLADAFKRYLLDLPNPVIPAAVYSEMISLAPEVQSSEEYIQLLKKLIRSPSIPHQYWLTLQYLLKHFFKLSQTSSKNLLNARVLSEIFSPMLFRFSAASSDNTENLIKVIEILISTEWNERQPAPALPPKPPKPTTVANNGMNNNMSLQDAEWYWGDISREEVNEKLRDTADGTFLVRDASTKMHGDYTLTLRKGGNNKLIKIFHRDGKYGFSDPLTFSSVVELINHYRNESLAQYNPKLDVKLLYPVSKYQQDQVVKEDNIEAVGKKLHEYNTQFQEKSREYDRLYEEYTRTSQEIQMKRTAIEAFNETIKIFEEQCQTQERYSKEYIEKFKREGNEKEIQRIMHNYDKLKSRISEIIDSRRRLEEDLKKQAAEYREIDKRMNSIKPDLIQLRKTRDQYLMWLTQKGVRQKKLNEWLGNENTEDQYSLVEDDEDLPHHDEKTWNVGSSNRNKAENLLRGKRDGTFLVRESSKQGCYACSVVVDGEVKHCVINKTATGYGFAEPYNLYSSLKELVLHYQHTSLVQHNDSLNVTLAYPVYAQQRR
T6 sequence (P42338 whole entry): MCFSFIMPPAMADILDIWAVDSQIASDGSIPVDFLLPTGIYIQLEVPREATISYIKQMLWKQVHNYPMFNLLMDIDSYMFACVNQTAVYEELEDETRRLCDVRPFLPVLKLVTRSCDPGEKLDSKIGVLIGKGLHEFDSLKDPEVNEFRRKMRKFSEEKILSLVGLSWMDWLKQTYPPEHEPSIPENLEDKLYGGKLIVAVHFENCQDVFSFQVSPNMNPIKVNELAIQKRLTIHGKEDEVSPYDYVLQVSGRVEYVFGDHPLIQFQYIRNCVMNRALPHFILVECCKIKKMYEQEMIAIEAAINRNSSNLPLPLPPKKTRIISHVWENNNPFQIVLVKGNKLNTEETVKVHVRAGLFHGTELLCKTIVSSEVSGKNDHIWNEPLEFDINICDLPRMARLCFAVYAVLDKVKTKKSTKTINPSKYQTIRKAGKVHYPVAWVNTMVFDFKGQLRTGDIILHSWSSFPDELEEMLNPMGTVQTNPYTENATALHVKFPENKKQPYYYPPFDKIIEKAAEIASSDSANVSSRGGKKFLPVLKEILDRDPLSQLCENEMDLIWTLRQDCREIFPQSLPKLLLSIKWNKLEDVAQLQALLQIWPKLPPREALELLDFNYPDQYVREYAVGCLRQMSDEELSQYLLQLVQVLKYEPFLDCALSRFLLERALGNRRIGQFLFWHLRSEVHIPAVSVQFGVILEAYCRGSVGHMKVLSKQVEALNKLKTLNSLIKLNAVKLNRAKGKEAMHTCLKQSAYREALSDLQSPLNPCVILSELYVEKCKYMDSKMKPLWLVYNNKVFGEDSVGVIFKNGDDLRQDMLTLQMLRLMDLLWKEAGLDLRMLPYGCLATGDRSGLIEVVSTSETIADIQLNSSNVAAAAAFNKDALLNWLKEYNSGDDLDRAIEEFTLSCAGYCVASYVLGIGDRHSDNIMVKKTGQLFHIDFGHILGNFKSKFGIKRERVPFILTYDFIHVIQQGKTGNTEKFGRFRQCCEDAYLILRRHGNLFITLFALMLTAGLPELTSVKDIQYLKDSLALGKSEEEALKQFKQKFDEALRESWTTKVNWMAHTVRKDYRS
T6 sequence (P27986 whole entry partner): as the sequence (P27986 whole entry partner) above
T2 sequence (P42336 whole entry): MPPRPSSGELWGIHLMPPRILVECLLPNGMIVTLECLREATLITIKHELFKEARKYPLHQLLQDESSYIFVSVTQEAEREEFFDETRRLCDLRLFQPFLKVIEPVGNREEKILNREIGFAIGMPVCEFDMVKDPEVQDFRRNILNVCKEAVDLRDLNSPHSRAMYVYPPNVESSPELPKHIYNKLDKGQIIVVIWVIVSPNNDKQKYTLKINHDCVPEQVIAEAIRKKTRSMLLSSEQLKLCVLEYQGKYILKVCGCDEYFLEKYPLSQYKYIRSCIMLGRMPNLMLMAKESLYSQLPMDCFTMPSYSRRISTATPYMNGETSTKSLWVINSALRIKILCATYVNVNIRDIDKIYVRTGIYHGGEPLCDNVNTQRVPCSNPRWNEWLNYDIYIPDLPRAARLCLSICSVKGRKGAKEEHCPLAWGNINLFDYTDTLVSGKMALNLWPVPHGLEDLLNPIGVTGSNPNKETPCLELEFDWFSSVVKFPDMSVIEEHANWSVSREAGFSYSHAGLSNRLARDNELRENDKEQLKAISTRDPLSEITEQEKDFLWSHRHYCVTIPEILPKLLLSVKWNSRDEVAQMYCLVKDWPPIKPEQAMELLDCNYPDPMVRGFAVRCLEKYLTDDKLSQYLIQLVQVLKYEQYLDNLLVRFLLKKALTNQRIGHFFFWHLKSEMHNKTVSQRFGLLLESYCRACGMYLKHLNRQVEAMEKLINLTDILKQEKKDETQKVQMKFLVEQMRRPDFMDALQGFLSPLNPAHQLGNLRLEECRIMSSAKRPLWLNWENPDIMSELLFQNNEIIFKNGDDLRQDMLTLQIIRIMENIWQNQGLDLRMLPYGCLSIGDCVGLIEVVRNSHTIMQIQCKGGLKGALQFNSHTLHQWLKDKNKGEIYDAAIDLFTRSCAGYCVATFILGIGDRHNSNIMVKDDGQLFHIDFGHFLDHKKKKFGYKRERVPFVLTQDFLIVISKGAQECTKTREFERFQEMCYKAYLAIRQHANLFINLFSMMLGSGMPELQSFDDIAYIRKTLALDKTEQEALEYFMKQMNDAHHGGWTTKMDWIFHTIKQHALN
T2 sequence (P27986 whole entry partner): as the sequence (P27986 whole entry partner) above
T5 sequence (P48736 whole entry): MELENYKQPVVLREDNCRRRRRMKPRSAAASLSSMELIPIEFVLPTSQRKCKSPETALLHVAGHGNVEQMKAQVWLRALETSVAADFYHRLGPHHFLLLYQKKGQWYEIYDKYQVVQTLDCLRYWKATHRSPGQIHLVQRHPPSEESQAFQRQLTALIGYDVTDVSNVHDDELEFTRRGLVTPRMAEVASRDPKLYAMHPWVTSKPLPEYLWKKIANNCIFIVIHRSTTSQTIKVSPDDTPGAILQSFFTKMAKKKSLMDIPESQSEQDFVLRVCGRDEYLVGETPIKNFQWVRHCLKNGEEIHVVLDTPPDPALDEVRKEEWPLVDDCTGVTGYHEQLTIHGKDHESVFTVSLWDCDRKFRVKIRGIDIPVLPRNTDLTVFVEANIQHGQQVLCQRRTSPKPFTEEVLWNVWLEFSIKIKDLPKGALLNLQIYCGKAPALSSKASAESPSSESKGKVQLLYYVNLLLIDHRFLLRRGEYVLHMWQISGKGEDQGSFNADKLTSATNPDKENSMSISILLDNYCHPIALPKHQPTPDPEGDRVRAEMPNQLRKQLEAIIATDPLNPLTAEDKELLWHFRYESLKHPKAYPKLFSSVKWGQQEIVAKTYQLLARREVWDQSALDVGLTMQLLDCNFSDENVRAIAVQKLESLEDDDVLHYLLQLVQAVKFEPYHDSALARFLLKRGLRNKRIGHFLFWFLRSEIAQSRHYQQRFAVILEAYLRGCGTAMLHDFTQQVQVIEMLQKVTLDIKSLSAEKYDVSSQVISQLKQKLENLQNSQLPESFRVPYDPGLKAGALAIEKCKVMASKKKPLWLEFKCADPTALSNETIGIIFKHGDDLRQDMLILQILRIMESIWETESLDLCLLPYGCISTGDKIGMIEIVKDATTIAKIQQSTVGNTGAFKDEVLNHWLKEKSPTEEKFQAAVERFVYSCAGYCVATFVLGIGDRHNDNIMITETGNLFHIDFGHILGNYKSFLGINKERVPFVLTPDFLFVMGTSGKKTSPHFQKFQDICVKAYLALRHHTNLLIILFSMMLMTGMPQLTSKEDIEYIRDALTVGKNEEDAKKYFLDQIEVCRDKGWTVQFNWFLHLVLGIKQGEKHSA

SMILES | IC50 (mTOR; [2]) [µM] | PI3Ka (PI3Kalpha (PI3Ka); Further Kinobeads Data) | IC50 (PI3K delta (PI3 Kd); [3]) [µM] | IC50 [1, 4] [µM] | IC50 (PI3 Kgamma (PI3 Kg); [5]) [µM] | IC50 (PI3 Kbeta (PI3 Kb); [6]) [µM] | IC50 (PI3Kalpha (PI3Ka); [7]) [µM] | IC50 (mTOR; [8]) [µM] | IC50 (PI3Kalpha (PI3Ka); [9]) [µM] | IC50 (PI3K delta (PI3 Kd); [10]) [µM] | IC50 [1, 11] [µM] | IC50 (PI3 Kgamma (PI3 Kg); [12]) [µM] | IC50 (PI3 Kbeta (PI3 Kb); [13]) [µM] | Inhibition values (IC50) PI3Ka (PI3Kalpha (PI3Ka); kinobeads assay, Table 6)
CCNC(=O)Nc1ccc(-c2nc3c(c(N4CCOC[C@@H]4C)n2)CN(C(C)=O)C3)c(F)c1 [Example 157, (S)-1-(4-(6-acetyl-4-(3-methylmorpholino)-6,7-dihydro-5H-pyrrolo[3,4-d]pyrimidin-2-yl)-3-fluorophenyl)-3-ethylurea] | < 0.1 | D (D >10 μM) | 1 to 10 | > 10 | > 10 | > 10 |  |  |  |  |  |  |  | 
CCNC(=O)Nc1ccc(-c2nc3c(c(N4CCOCC4)n2)CNC3)c(F)c1 [Example 150, 1-Ethyl-3-(3-fluoro-4-(4-morpholino-6,7-dihydro-5H-pyrrolo[3,4-d]pyrimidin-2-yl)phenyl)urea hydrochloride] | < 0.1 |  | > 10 | > 10 | > 10 | > 10 | 1 to 10 |  |  |  |  |  |  | 
C[C@H]1COCCN1c1nc(-c2ccc(NC(=O)NC3CC3)cc2)nc2c1CN(C(=O)CCN1CCCC1=O)C2 [Example 132, (S)-1-cyclopropyl-3-(4-(4-(3-methylmorpholino)-6-(3-(2-oxopyrrolidin-1-yl)propanoyl)-6,7-dihydro-5H-pyrrolo[3,4-d]pyrimidin-2-yl)phenyl)urea] |  |  |  |  |  |  |  | < 0.1 | 1 to 10 | 1 to 10 | > 10 | > 10 | 1 to 10 | 
CCNC(=O)Nc1ccc(-c2nc3c(c(N4CCOC[C@@H]4C)n2)CN(C(=O)C2CCNCC2)C3)cc1F [Example 126, (S)-1-ethyl-3-(2-fluoro-4-(4-(3-methylmorpholino)-6-(piperidine-4-carbonyl)-6,7-dihydro-5H-pyrrolo[3,4-d]pyrimidin-2-yl)phenyl)urea] |  |  |  |  |  |  |  | 0.1 to 1 |  | > 10 | > 10 | > 10 | 1 to 10 | D (D >10 μM)
C[C@H]1COCCN1c1nc(-c2ccc(NC(=O)NC3CC3)cc2F)nc2c1CN(C(=O)OC(C)(C)C)C2 [Example 144, (S)-tert-Butyl 2-(4-(3-cyclopropylureido)-2-fluorophenyl)-4-(3-methylmorpholino)-5H-pyrrolo[3,4-d]pyrimidine-6(7H)-carboxylate] | 0.1 to 1 | D (D >10 μM) | > 10 | > 10 | > 10 | > 10 |  |  |  |  |  |  |  | 
C[C@H]1COCCN1c1nc(-c2ccc(NC(=O)NC3CC3)cc2F)nc2c1CNC2 [Example 149, (S)-1-(Cyclopropyl)-3-(3-fluoro-4-(4-(3-methylmorpholino)-6,7-dihydro-5H-pyrrolo[3,4-d]pyrimidin-2-yl)phenyl)urea hydrochloride] | 0.1 to 1 |  | > 10 | > 10 | > 10 | > 10 | 1 to 10 |  |  |  |  |  |  | 
CCOC(=O)N1Cc2nc(-c3ccc(NC(=O)NCC(N)=O)cc3)nc(N3CCOC[C@@H]3C)c2C1 [Example 114, (S)-ethyl 2-(4-(3-(2-amino-2-oxoethyl)ureido)phenyl)-4-(3-methylmorpholino)-5H-pyrrolo[3,4-d]pyrimidine-6(7H)-carboxylate] |  |  |  |  |  |  |  | 0.1 to 1 |  | 0.1 to 1 | > 10 | 1 to 10 | 1 to 10 | B (B >0.1 μM < 1 μM)
CCNC(=O)Nc1ccc(-c2nc3c(c(N4CCOC[C@@H]4C)n2)CN(C(=O)C2CCN(C(C)=O)CC2)C3)cc1F [Example 123, (S)-1-(4-(6-(1-acetylpiperidine-4-carbonyl)-4-(3-methylmorpholino)-6,7-dihydro-5H-pyrrolo[3,4-d]pyrimidin-2-yl)-2-fluorophenyl)-3-ethylurea] |  |  |  |  |  |  |  | 0.1 to 1 |  | > 10 | > 10 | > 10 | > 10 | D (D >10 μM)
CCNC(=O)Nc1ccc(-c2nc3c(c(N4CCOC[C@@H]4C)n2)CN(C)C3)c(F)c1F [Example 140, (S)-1-(2,3-difluoro-4-(6-methyl-4-(3-methylmorpholino)-6,7-dihydro-5H-pyrrolo[3,4-d]pyrimidin-2-yl)phenyl)-3-ethylurea] | 1 to 10 | D (D >10 μM) | > 10 | > 10 | > 10 | > 10 |  |  |  |  |  |  |  | 
C[C@H]1COCCN1c1nc(-c2ccc(NC(=O)NC3CC3)cc2)nc2c1CN(C(=O)CCC(N)=O)C2 [Example 127, (S)-4-(2-(4-(3-cyclopropylureido)phenyl)-4-(3-methylmorpholino)-5H-pyrrolo[3,4-d]pyrimidin-6(7H)-yl)-4-oxobutanamide] |  |  |  |  |  |  |  | < 0.1 | 1 to 10 | > 10 |  | > 10 |  | 
